Consider one compound from patent US9732091B2, “Tryptophanol-derived oxazoloisoindolinones: small-molecule P53 activators” (UNIVERSIDADE DO PORTO, priority 2013, dated 2017).

In general, GI50 refers to the concentration giving 50% growth inhibition. A high value points to less potent growth inhibition.

In one data set the target is T1, human wt p53 (Homo sapiens, UniProt P04637).
T1 construct: expressed in transfected cells
Nature of the data set: yeast-based assay, yeast cells expressing human wt p53 (growth by CFU counts, cell cycle, actin Western blot). The protocol: FIG. 1 illustrates that SLMP53-1 and SLMP53-2 increase the p53 effects in yeast. Yeast cells expressing human wt p53 and transformed with the empty vector (control yeast) were incubated in selective induction medium in the presence of 0.1-25 μM compound or DMSO only, for 42 hours. (A) Effect of 10 μM SLMP53-1 and SLMP53-2 on the p53-induced yeast growth inhibition. Results are plotted setting as one unit the p53-induced growth inhibition in the presence of DMSO only. Growth was estimated by colony-forming unit (CFU) counts. […] (B) Dose-response curve for SLMP53-1 in yeast cells expressing human p53 and control yeast. Cells were incubated in selective medium with 0.1-25 μM of SLMP53-1 or DMSO only. Results are plotted setting as 100% growth inhibition the number of CFU obtained in the presence of DMSO only. Data are mean±S.E.M. of three independent experiments (*P<0.05; unpaired Student's t-test). (C) Effect of SLMP53-1 and SLMP53-2 on p53-induced S-phase cell cycle arrest in yeast. Cell cycle phases were analyzed by flow cytometry using Sytox Green and quantified using ModFit LT software; quantification of cell cycle phases represent the mean values. (D) Increase of p53-induced actin protein expression levels by SLMP53-1 and SLMP53-2 in yeast expressing p53. Western Blot band intensity was quantified using Pgk1p as loading control (with Bio-Profile Bio-1D++ software).
Using a yeast-based screening approach, the chiral compounds SLMP53-1 and SLMP53-2 were identified as potential activators of wt p53, from a chemical library of tryptophanol-derived oxazoloisoindolinones with general formula (I) shown in FIG. 1, wherein X, R^1, R^2, R^3, R^4, R^5, R^6, R^7, R^8, R^9 and R^10 are as defined herein, as well as their stereoisomers, enantiomers, ra.cemates, tautomers thereof or mixtures thereof; or a pharmaceutically acceptable salt, solvate or prodrug thereof. In the yeast cell model, compounds SLMP53-1 and SLMP53-2 increased the previously reported (Coutinho et al. FEBS Lett. 2009, 583, 3582-3588) p53-induced growth inhibition (FIGS. 1A and B) and S-phase cell cycle arrest (FIG. 1C).
For orientation: Immunoblotting shows a protein as a band on a membrane.

The subject of a further data set is HCT116 p53^+/+. Nature of the data set: SRB growth inhibition assay in HCT116 p53^+/+ colon carcinoma cells. In kind it is cell-based, human. The protocol: Tumor cells were plated at 5.0×10^3 cells/well in 96-well plates and incubated for 24 hours. Cells were then exposed to serial dilutions of SLMP53-1, CP-31398 or PRIMA-1 (from 1.85 to 150 μM). The effect of the compounds was analyzed following 48 hours incubation, using the sulforhodamine B (SRB) assay. The solvent DMSO corresponding to the maximum concentration used in these assays (0.025%) was included as control. The GI50 value, the concentration of compound that causes 50% growth inhibition, was calculated for the tested compounds. Results are the mean±S.E.M. of three independent experiments.

In data set [1] the test system is HCT116 p53^+/+ cells. The data set can be described thus: apoptosis by flow cytometry (FITC-Annexin V and propidium iodide), HCT116 p53^+/+. In kind it is cell-based, human. Particulars: GI50 and double GI50, 24 hours. The protocol: Apoptosis was analyzed by flow cytometry using FITC-Annexin V and propidium iodide. The effect of compounds was analyzed after 24 hours treatment using the concentration of GI50 and double GI50. Histograms represent one of two independent experiments; quantification of cells in apoptosis represents the mean±S.E.M. of two independent experiments.
Background: A flow cytometer gives signals particle by particle.

In data set [2] the test system is HCT116 p53^+/+ cells. Nature of the data set: sensitization to etoposide and doxorubicin, SRB assay, HCT116 p53^+/+. In kind it is cell-based, human. The protocol:
FIG. 5 illustrates that SLMP53-1 sensitizes colon carcinoma tumor cells with wt p53 (HCT116 p53^+/+) to the effects of etoposide and doxorubicin. HCT116 p53^+/+ cells were treated for 48 hours with increasing concentrations of etoposide (0.38 to 3.00 μM) or doxorubicin (9.38 to 75.0 nM) in the presence of a very low concentration (between GI5 to GI10; 4 μM) of SLMP53-1 or DMSO only. The effect of the compounds on cell growth was analyzed following 48 hours incubation, using the sulforhodamine B (SRB) assay. Results are mean±SEM of three to four independent experiments.
It was also investigated if SLMP53-1 increased the sensitivity of HCT116 p53^+/+ cells to the effects of various concentrations of the conventional chemotherapeutic drugs, etoposide (0.38 to 3.00 μM) and doxorubicin (9.38 to 75 nM). For that, a low concentration of SLMP53-1 (approximately the GI5 to GI10 concentration; 4 μM; without significant anti-proliferative effect on tumor cells) was used.
In general terms: In SRB staining, fixed cells bind dye roughly in proportion to their protein.

For a further data set, the target named is T2, mutant p53 R280K (Homo sapiens, UniProt P04637, R280K).
T2 construct: expressed in transfected cells
Nature of the data set: reactivation of mutant p53 in yeast (growth, CFU), R280K. Format: cell-based. As to conditions: 10 μM; yeast expressing R280K; 44 hours. The protocol:
(§1) FIG. 6 illustrates that SLMP53-1 reactivates mutant p53s R273H, R175H and R280K in yeast. Yeast cells expressing R273H, R280K, Y220C or R175H were incubated in selective medium with 10 μM of SLMP53-1, 10 μM of CP-31398 (for R273H), 10 μM of PRIMA-1 (for R175H and R280K), 50 μM of PhiKan 083 (for Y220C) or DMSO only, for 44 hours. CP-31398, PRIMA-1 and PhiKan 083 were used as positive controls. Results are plotted setting as 100% growth the number of CFU obtained in the presence of DMSO only.
(§2) It is also shown that SLMP53-1 can reactivate some mutant p53 forms, particularly R273H, R280K and R175H (FIG. 6).

Another data set concerns the target T3, mutant p53 R175H (Homo sapiens, UniProt P04637, R175H).
T3 construct: expressed in transfected cells
The data set can be described thus: reactivation of mutant p53 in yeast (growth, CFU), R175H. Format: cell-based. Particulars: 10 μM; yeast expressing R175H; 44 hours. The protocol:
as §1, §2

In the next data set the test system is human lymphocytes. The data set can be described thus: cytokinesis-block micronucleus assay. In kind it is cell-based. The protocol:
Concerning the genotoxicity assays, three concentrations (15.5, 7.25 and 1.55 μM) of SLMP53-1 were tested, in vitro, for potential genotoxicity to human lymphocytes. For that purpose, the cytokinesis-block micronucleus assay (an assay routinely used in mutagen/carcinogen screening programs) was used, which measures the ability of genotoxic agents to induce both chromosomal damage (clastogenic) and/or spindle dysfunction (aneugenic) effects.

The nature of data set [3]: apparent permeability coefficients. In kind it is in vitro ADME.
Setting [4] is: HCT116 p53^+/+ vs HCT116 p53^−/−.

Entries after “also recorded” stand apart in the source; their conditions may differ.

As for `C[C@]12OC[C@H](Cc3c[nH]c4ccccc34)N1C(=O)c1ccccc12` [SLMP53-1], at human wt p53 (yeast expressing human wt p53, 10 μM, 42 hours, vs DMSO only), the p53-induced growth inhibition entry is “increased”. The “p53-induced S-phase cell cycle arrest” value at human wt p53 (yeast expressing human wt p53, flow cytometry) was “increased”. Moreover, at human wt p53 (yeast expressing p53, Western blot, vs DMSO only), the actin protein levels result is given as “increased the actin protein levels”. Also, the “GI50 in HCT116 p53^+/+ cells lower than in HCT116 p53^−/− cells” value in the data set with HCT116 p53^+/+ (setting [4]) is on record as 2 fold. For the same compound, the “p53 dependence of anti-proliferative effect” value in the data set on HCT116 p53^+/+ (setting [4]) was “p53-dependent anti-proliferative effect”. In addition, in the data set with HCT116 p53^+/+ (Homo sapiens, HCT-116, HCT116 p53^+/+, 48 hours incubation, SRB, mean±S.E.M.), the GI50 turned out to be 15.5 ± 1.6 µM. Also, the apoptosis result in the data set with HCT116 p53^+/+ cells [1] is “induces early and late apoptosis; also recorded: apoptotic cell death”. The “decrease of tumor cell growth” value with HCT116 p53^+/+ cells [2] (9.38 nM doxorubicin in the presence of 4 μM of SLMP53-1, HCT116 p53^+/+) worked out at 15%. Also, the etoposide/doxorubicin-induced growth inhibition result with HCT116 p53^+/+ cells [2] (4 μM SLMP53-1, etoposide 0.75 and 3.00 μM, doxorubicin 9.38, 37.5 and 75 nM, 48 hours) is listed as “increased”. For the same compound, the yeast growth inhibition result on mutant p53 R280K and at mutant p53 R175H was “significant growth inhibition” in each case. Also, the “cytotoxic and genotoxic effects” value in the data set on human lymphocytes was “no cytotoxic and genotoxic effects were observed”. For the same compound, in the data set on human lymphocytes (15.5, 7.25 and 1.55 μM, human lymphocytes, in vitro), the “mutagenic potential (micronuclei frequency vs negative control)” value is “does not possess mutagenic potential”. For the same compound, the apparent permeability coefficients entry in data set [3] was “favorable”.
